Measurements reported in ChEMBL document CHEMBL3885861, “Open TG-GATES”.

Organism: Rattus norvegicus
Experiment: Open TG-GATES - Regimen: Daily Repeat
Assay type: toxicity, organism-based, Sprague-Dawley
Parameters: regimen Daily Repeat, gender Male, age 6 weeks
Details: in vivo, po, 1000 mg/kg, route gavage, dose level High; for APTT / Bas / Eos / Fbg / Hb / Ht / Lym / MCH / MCHC / MCV / Mono / Neu / PT / Plat / RBC / Ret / WBC: tissue Blood; for KIDNEY_L / KIDNEY_R / KIDNEY_TOTAL: tissue Kidney; for LIVER: tissue Liver; for A/G / ALP / ALT / AST / BUN / CRE / Ca / Cl / DBIL / GLC / IP / K / LDH / Na / PL / RALB / TBIL / TC / TG / TP / gamma-GTP: tissue Plasma

CN(C)[C@@H]1C(O)=C(C(N)=O)C(=O)[C@@]2(O)C(O)=C3C(=O)c4c(O)cccc4[C@@](C)(O)[C@H]3C[C@@H]12 [TETRACYCLINE] showed a TERMINAL_BW (72 h, time 3 day) of 196.1 g, an APTT (72 h, time 3 day) of 16.3 s and a Bas (72 h, time 3 day) of 0%. The Eos (72 h, time 3 day) was 1.2%, the Fbg (72 h, time 3 day) was 220.4 mg/dL and the Hb (72 h, time 3 day) was 13.2 g/dL. It also gave a Ht (72 h, time 3 day) of 39.6%, a Lym (72 h, time 3 day) of 87.6% and an MCH (72 h, time 3 day) of 21.2 pg. It also gave an MCHC (72 h, time 3 day) of 33.2%, an MCV (72 h, time 3 day) of 63.8 fL and a Mono (72 h, time 3 day) of 4.6%. For the same compound, the Neu (72 h, time 3 day) was 6.6%, the PT (72 h, time 3 day) was 12.3 s and the Plat (72 h, time 3 day) was 111.2 x10_4/uL. The RBC (72 h, time 3 day) was 621.8 x10_4/ul, the Ret (72 h, time 3 day) was 5.2% and the WBC (72 h, time 3 day) was 98.6 x10_2/uL. For the same compound, the KIDNEY_L (72 h, time 3 day) was 0.9 g, the KIDNEY_R (72 h, time 3 day) was 0.9 g and the KIDNEY_TOTAL (72 h, time 3 day) was 1.8 g. The LIVER (72 h, time 3 day) was 8.4 g, the A/G (72 h, time 3 day) was 2.2 and the ALP (72 h, time 3 day) was 1151 IU/L. For the same compound, the ALT (72 h, time 3 day) was 37.8 IU/L, the AST (72 h, time 3 day) was 72.2 IU/L and the BUN (72 h, time 3 day) was 17.2 mg/dL. The CRE (72 h, time 3 day) was 0.5 mg/dL, the Ca (72 h, time 3 day) was 10.8 mg/dL and the Cl (72 h, time 3 day) was 105.8 meq/L. For the same compound, the DBIL (72 h, time 3 day) was 0.006 mg/dL, the GLC (72 h, time 3 day) was 181 mg/dL and the IP (72 h, time 3 day) was 9 mg/dL. It also gave a K (72 h, time 3 day) of 4.6 meq/L, an LDH (72 h, time 3 day) of 144.4 IU/L and a Na (72 h, time 3 day) of 140.8 meq/L. The PL (72 h, time 3 day) was 143.2 mg/dL, the RALB (72 h, time 3 day) was 3.8 g/dL and the TBIL (72 h, time 3 day) was 0.3 mg/dL. For the same compound, the TC (72 h, time 3 day) was 85.8 mg/dL, the TG (72 h, time 3 day) was 40.4 mg/dL and the TP (72 h, time 3 day) was 5.5 g/dL. The gamma-GTP (72 h, time 3 day) was 1.8 IU/L, the TERMINAL_BW ([…], time 7 day) was 225.1 g and the TERMINAL_BW ([…], time 14 day) was 289.3 g. The TERMINAL_BW ([…], time 28 day) was 356 g, the APTT ([…], time 7 day) was 16 s and the Bas ([…], time 7 day) was 0%. The Eos ([…], time 7 day) was 1.2%, the Fbg ([…], time 7 day) was 220.8 mg/dL and the Hb ([…], time 7 day) was 13.3 g/dL. The Ht ([…], time 7 day) was 39.5%, the Lym ([…], time 7 day) was 86.6% and the MCH ([…], time 7 day) was 20.8 pg. It also gave an MCHC ([…], time 7 day) of 33.6%, an MCV ([…], time 7 day) of 61.7 fL and a Mono ([…], time 7 day) of 5.8%. The Neu ([…], time 7 day) was 6.8%, the PT ([…], time 7 day) was 12.3 s and the Plat ([…], time 7 day) was 115 x10_4/uL. The RBC ([…], time 7 day) was 639.8 x10_4/ul, the Ret ([…], time 7 day) was 6.4% and the WBC ([…], time 7 day) was 124.1 x10_2/uL. The APTT ([…], time 14 day) was 16.2 s, the Bas ([…], time 14 day) was 0% and the Eos ([…], time 14 day) was 1%. For the same compound, the Fbg ([…], time 14 day) was 225.4 mg/dL, the Hb ([…], time 14 day) was 13.5 g/dL and the Ht ([…], time 14 day) was 40.9%. It also gave a Lym ([…], time 14 day) of 91.2%, an MCH ([…], time 14 day) of 20.6 pg and an MCHC ([…], time 14 day) of 33%. The MCV ([…], time 14 day) was 62.5 fL, the Mono ([…], time 14 day) was 2.6% and the Neu ([…], time 14 day) was 5.4%. For the same compound, the PT ([…], time 14 day) was 11.9 s, the Plat ([…], time 14 day) was 109.6 x10_4/uL and the RBC ([…], time 14 day) was 656 x10_4/ul. The Ret ([…], time 14 day) was 6.7%, the WBC ([…], time 14 day) was 146 x10_2/uL and the APTT ([…], time 28 day) was 16.6 s. For the same compound, the Bas ([…], time 28 day) was 0%, the Eos ([…], time 28 day) was 1% and the Fbg ([…], time 28 day) was 233.6 mg/dL. For the same compound, the Hb ([…], time 28 day) was 14.4 g/dL, the Ht ([…], time 28 day) was 43.2% and the Lym ([…], time 28 day) was 86.8%. It also gave an MCH ([…], time 28 day) of 19 pg, an MCHC ([…], time 28 day) of 33.4% and an MCV ([…], time 28 day) of 56.9 fL. It also gave a Mono ([…], time 28 day) of 3.6%, a Neu ([…], time 28 day) of 8.6% and a PT ([…], time 28 day) of 11.8 s. The Plat ([…], time 28 day) was 95 x10_4/uL, the RBC ([…], time 28 day) was 761.4 x10_4/ul and the Ret ([…], time 28 day) was 2.9%. It also gave a WBC ([…], time 28 day) of 154.2 x10_2/uL, a KIDNEY_L ([…], time 7 day) of 1 g and a KIDNEY_R ([…], time 7 day) of 1 g. For the same compound, the KIDNEY_TOTAL ([…], time 7 day) was 1.9 g, the KIDNEY_L ([…], time 14 day) was 1.1 g and the KIDNEY_R ([…], time 14 day) was 1.2 g. The KIDNEY_TOTAL ([…], time 14 day) was 2.3 g, the KIDNEY_L ([…], time 28 day) was 1.3 g and the KIDNEY_R ([…], time 28 day) was 1.2 g. The KIDNEY_TOTAL ([…], time 28 day) was 2.5 g, the LIVER ([…], time 7 day) was 9.5 g and the LIVER ([…], time 14 day) was 11.9 g. The LIVER ([…], time 28 day) was 12.2 g, the A/G ([…], time 7 day) was 2.1 and the ALP ([…], time 7 day) was 1114.8 IU/L. The ALT ([…], time 7 day) was 36.6 IU/L, the AST ([…], time 7 day) was 72 IU/L and the BUN ([…], time 7 day) was 17 mg/dL. The CRE ([…], time 7 day) was 0.5 mg/dL, the Ca ([…], time 7 day) was 11.1 mg/dL and the Cl ([…], time 7 day) was 106.2 meq/L. For the same compound, the DBIL ([…], time 7 day) was 0.008 mg/dL, the GLC ([…], time 7 day) was 179.6 mg/dL and the IP ([…], time 7 day) was 9 mg/dL. For the same compound, the K ([…], time 7 day) was 5.2 meq/L, the LDH ([…], time 7 day) was 116.4 IU/L and the Na ([…], time 7 day) was 140.4 meq/L. It also gave a PL ([…], time 7 day) of 139 mg/dL, an RALB ([…], time 7 day) of 3.8 g/dL and a TBIL ([…], time 7 day) of 0.2 mg/dL. For the same compound, the TC ([…], time 7 day) was 74 mg/dL, the TG ([…], time 7 day) was 56.2 mg/dL and the TP ([…], time 7 day) was 5.6 g/dL. It also gave a gamma-GTP ([…], time 7 day) of 1.2 IU/L, an A/G ([…], time 14 day) of 2 and an ALP ([…], time 14 day) of 1024 IU/L. It also gave an ALT ([…], time 14 day) of 33.8 IU/L, an AST ([…], time 14 day) of 64.8 IU/L and a BUN ([…], time 14 day) of 20.2 mg/dL. For the same compound, the CRE ([…], time 14 day) was 0.6 mg/dL, the Ca ([…], time 14 day) was 11.3 mg/dL and the Cl ([…], time 14 day) was 104 meq/L. For the same compound, the DBIL ([…], time 14 day) was 0.074 mg/dL, the GLC ([…], time 14 day) was 176 mg/dL and the IP ([…], time 14 day) was 9.2 mg/dL. For the same compound, the K ([…], time 14 day) was 4.9 meq/L, the LDH ([…], time 14 day) was 156.6 IU/L and the Na ([…], time 14 day) was 143 meq/L. The PL ([…], time 14 day) was 168.8 mg/dL, the RALB ([…], time 14 day) was 3.9 g/dL and the TBIL ([…], time 14 day) was 0.3 mg/dL. It also gave a TC ([…], time 14 day) of 89.2 mg/dL, a TG ([…], time 14 day) of 84.2 mg/dL and a TP ([…], time 14 day) of 5.9 g/dL. For the same compound, the gamma-GTP ([…], time 14 day) was 2 IU/L, the A/G ([…], time 28 day) was 1.8 and the ALP ([…], time 28 day) was 773.6 IU/L. The ALT ([…], time 28 day) was 35.2 IU/L, the AST ([…], time 28 day) was 71.8 IU/L and the BUN ([…], time 28 day) was 19.2 mg/dL. The CRE ([…], time 28 day) was 0.6 mg/dL, the Ca ([…], time 28 day) was 11.1 mg/dL and the Cl ([…], time 28 day) was 106 meq/L. For the same compound, the DBIL ([…], time 28 day) was 0.024 mg/dL, the GLC ([…], time 28 day) was 168.8 mg/dL and the IP ([…], time 28 day) was 7.6 mg/dL. The K ([…], time 28 day) was 4.4 meq/L, the LDH ([…], time 28 day) was 143.6 IU/L and the Na ([…], time 28 day) was 142 meq/L. It also gave a PL ([…], time 28 day) of 140.4 mg/dL, an RALB ([…], time 28 day) of 3.6 g/dL and a TBIL ([…], time 28 day) of 0.3 mg/dL. It also gave a TC ([…], time 28 day) of 77.6 mg/dL, a TG ([…], time 28 day) of 73.8 mg/dL and a TP ([…], time 28 day) of 5.7 g/dL. The gamma-GTP ([…], time 28 day) was 1.6 IU/L.
